Where “and” joins values, the source holds several entries; their conditions need not be identical. Equal values may be shown once. Entries after “also recorded” stand apart in the source; their conditions may differ.
Tests used:
human PBMC [1] = test: Test compound induced cytokine secretion in human PBMC without LPS, 10 or 26 hours (Phase 1); details: 100 μM, 26 hours, no LPS
Protocol: Secretion of the cytokines TNF-α (A), IL-1β (B) and IL-6 (C) were measured in supernatant of PBMC cultured in the presence of test compounds using a Luminex platform with the Milliplex MAP Human High Sensitivity T Cell Panel Immunology Multiplex Assay. Results are represented as a mean from 3 separate donors in pg/mL.
Whole blood was collected from 3 human donors and peripheral blood mononuclear cells (PBMC) were isolated using the Ficoll-Paque density gradient method. PBMC were then plated and left untouched for 2 hours to account for a 2 hours pretreatement period (see below for details), and incubated for 8 or 24 hours in a humidified incubator set to maintain 37° C. with 5% CO2, with different concentrations of LPS as per Table 11 in order to determine the optimal stimulation conditions to detect cytokine release. […] RPMI medium alone or supplemented with 0.1% DMSO (to mimic treatment conditions) were used as negative controls.
At the end of the incubation period, supernatant samples were recovered and stored at −80° C. until analysis (in duplicate) using a Luminex platform with the Milliplex MAP Human High Sensitivity T Cell Panel Immunology Multiplex Assay (Cat. No. HSTCMAG-28SK) with the following selected cytokines of interest: IL-1, IL-2, IL-6, IFN-g and TNF-α. Each assay was defined by one calibration curve and 2 sets of QCs and the results were expressed as pg/mL.

human PBMC [2] = test: LPS stimulated cytokine secretion in human PBMC pretreated with compounds (Phase 2); type: cell-based; parameters: TNF-α concentration in supernatant / IL-1β concentration in supernatant / IL-6 concentration in supernatant / IL-2 concentration in supernatant / IFN-g concentration in supernatant: unit of the concentration uncertain; details: for IL-1β Mean Fold-Change (Relative to LPS alone) / IL-6 Mean Fold-Change (Relative to LPS alone) / TNF-α Mean Fold-Change (Relative to LPS alone): 1 ng/mL LPS stimulation for 8 hours, means from 3 donors; for IL-2 concentration in supernatant / TNF-α concentration in supernatant / IL-1β concentration in supernatant / IFN-g concentration in supernatant / IL-6 concentration in supernatant: 8-hour 1 ng/mL LPS stimulation; for IL-2 concentration in supernatant: LLOQ = 1.698 pg/mL; for TNF-α concentration in supernatant: LLOQ = 2.018 pg/mL; for IL-1β concentration in supernatant: LLOQ = 2.299 pg/mL; for IFN-g concentration in supernatant: LLOQ = 2.792 pg/mL; for IL-6 concentration in supernatant: LLOQ = 0.831
RecQ helicase = molecular target: T1, RecQ helicase (Escherichia coli, UniProt P15043); test: Cell-free fluorescence molecular beacon helicase assay; type: biochemical, E. coli; parameters: Average rate of reaction / Rate (Triplicate): unit: RFU/min; details: for Fluorescence at 35 minutes, Run 2 / Fluorescence at time 0, Run 2: duplicate, listed as H; for Average rate of reaction: mean of triplicate; for Rate (Triplicate): rate of reaction=(F0-F35)/35; for Change in helicase activity compared to the DMSO control: any of the tested concentrations (0.06-200 μg/mL)
T1 construct: a full-length E. coli helicase, RecQ, was used
T1 sequence (P15043 whole entry): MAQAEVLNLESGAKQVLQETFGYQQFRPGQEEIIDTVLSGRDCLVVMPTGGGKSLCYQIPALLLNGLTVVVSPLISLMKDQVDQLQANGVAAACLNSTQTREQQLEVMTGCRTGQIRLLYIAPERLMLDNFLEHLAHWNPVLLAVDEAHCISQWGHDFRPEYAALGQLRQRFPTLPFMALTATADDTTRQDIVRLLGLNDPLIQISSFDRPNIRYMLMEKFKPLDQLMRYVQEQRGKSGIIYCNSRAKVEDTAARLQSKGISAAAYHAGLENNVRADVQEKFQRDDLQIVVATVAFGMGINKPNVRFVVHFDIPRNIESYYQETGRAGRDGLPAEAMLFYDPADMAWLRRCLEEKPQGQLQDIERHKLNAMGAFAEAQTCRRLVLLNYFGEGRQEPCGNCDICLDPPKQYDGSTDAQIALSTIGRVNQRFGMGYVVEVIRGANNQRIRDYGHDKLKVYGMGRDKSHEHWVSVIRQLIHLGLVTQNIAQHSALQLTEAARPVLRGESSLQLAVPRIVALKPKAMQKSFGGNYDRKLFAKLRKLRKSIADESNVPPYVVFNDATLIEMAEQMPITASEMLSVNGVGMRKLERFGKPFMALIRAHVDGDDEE

[3] = TA 0.06 μg/mL (plate column 4, wells A-C)
[4] = TA 0.2 μg/mL (plate column 5, wells A-C)
[5] = TA 0.6 μg/mL (plate column 6, wells A-C)
[6] = TA 2 μg/mL (plate column 7, wells A-C)
[7] = TA 6 μg/mL (plate column 8, wells A-C)
[8] = TA 60 μg/mL (plate column 10, wells A-C)
[9] = TA 200 + Buffer (plate column 12, wells A-C)

## COc1ccc([C@@H]2CC(=O)c3c(O)cc(O[C@@H]4O[C@H](CO[C@@H]5O[C@@H](C)[C@H](O)[C@@H](O)[C@H]5O)[C@@H](O)[C@H](O)[C@H]4O)cc3O2)cc1O [Hesperidin]
Human PBMC [1]
  Secretion of IL-1β and IL-6, compound alone: in one donor, secretion of IL-1β, and IL-6 was also observed
Human PBMC [2]; 10 mM (so in the source)
  IL-1β Mean Fold-Change (Relative to LPS alone): 1.14
  IL-6 Mean Fold-Change (Relative to LPS alone): 1.10
  TNF-α Mean Fold-Change (Relative to LPS alone): 0.98
Human PBMC [2]; 100 mM (so in the source)
  IL-1β Mean Fold-Change (Relative to LPS alone): 1.30
  IL-6 Mean Fold-Change (Relative to LPS alone): 1.24
  TNF-α Mean Fold-Change (Relative to LPS alone): 1.20
Human PBMC [2]; 200 mM (so in the source), 2 h pretreatment, 1 ng/mL LPS 8 hours
  Effect on LPS stimulated secretion of IL-1b: increase; also recorded: appeared to enhance; also recorded: potentiate
Human PBMC [2]; 200 mM (so in the source)
  IL-1β Mean Fold-Change (Relative to LPS alone): 1.54
  IL-6 Mean Fold-Change (Relative to LPS alone): 1.25
  TNF-α Mean Fold-Change (Relative to LPS alone): 1.14
Human PBMC [2]; Donor 1, 10 (unit uncertain)
  IL-2 concentration in supernatant: <LLOQ
  TNF-α concentration in supernatant: 1889.91 pg/mL
  IL-1β concentration in supernatant: 3059.18 pg/mL
  IFN-g concentration in supernatant: <LLOQ
  IL-6 concentration in supernatant: 1099.07 pg/mL
Human PBMC [2]; Donor 1, 100 (unit uncertain)
  IL-2 concentration in supernatant: <LLOQ
  TNF-α concentration in supernatant: 2577.7 pg/mL
  IL-1β concentration in supernatant: 3955.41 pg/mL
  IFN-g concentration in supernatant: <LLOQ
  IL-6 concentration in supernatant: 1441.95 pg/mL
Human PBMC [2]; Donor 1, 200 (unit uncertain)
  IL-2 concentration in supernatant: <LLOQ
  TNF-α concentration in supernatant: 2290.76 pg/mL
  IL-1β concentration in supernatant: 4853.62 pg/mL
  IFN-g concentration in supernatant: <LLOQ
  IL-6 concentration in supernatant: 1485.45 pg/mL
Human PBMC [2]; Donor 2, 10 (unit uncertain)
  IL-2 concentration in supernatant: <LLOQ
  TNF-α concentration in supernatant: 1091.56 pg/mL
  IL-1β concentration in supernatant: 2855.56 pg/mL
  IFN-g concentration in supernatant: <LLOQ
Human PBMC [2]; Donor 2, 100 (unit uncertain)
  IL-2 concentration in supernatant: <LLOQ
  TNF-α concentration in supernatant: 1254.84 pg/mL
  IL-1β concentration in supernatant: 2344.12 pg/mL
  IFN-g concentration in supernatant: <LLOQ
Human PBMC [2]; Donor 2, 200 (unit uncertain)
  IL-2 concentration in supernatant: <LLOQ
  TNF-α concentration in supernatant: 1621.58 pg/mL
  IL-1β concentration in supernatant: 3244.42 pg/mL
  IFN-g concentration in supernatant: <LLOQ
Human PBMC [2]; Donor 3, 10 (unit uncertain)
  IL-2 concentration in supernatant: <LLOQ
  TNF-α concentration in supernatant: 3632.86 pg/mL
  IL-1β concentration in supernatant: 3800.6 pg/mL
  IFN-g concentration in supernatant: <LLOQ
Human PBMC [2]; Donor 3, 100 (unit uncertain)
  IL-2 concentration in supernatant: <LLOQ
  TNF-α concentration in supernatant: 3808.52 pg/mL
  IL-1β concentration in supernatant: 4941.84 pg/mL
  IFN-g concentration in supernatant: <LLOQ
Human PBMC [2]; Donor 3, 200 (unit uncertain)
  IL-2 concentration in supernatant: <LLOQ
  TNF-α concentration in supernatant: 2731.72 pg/mL
  IL-1β concentration in supernatant: 4883.06 pg/mL
  IFN-g concentration in supernatant: <LLOQ
RecQ helicase; 0.06 μg/mL
  Fluorescence at 35 minutes, Run 2: 2987 RFU and 3023 RFU
  Fluorescence at time 0, Run 2: 5870 RFU and 7788 RFU
  Average rate of reaction: 61.47
RecQ helicase; 0.2 μg/mL
  Average rate of reaction: 53.5
  Rate (Triplicate): 47.51 and 71.4 and 41.6
RecQ helicase; 0.6 μg/mL
  Fluorescence at 35 minutes, Run 2: 2677 RFU and 2621 RFU
  Fluorescence at time 0, Run 2: 9523 RFU and 7721 RFU
  Average rate of reaction: 107.9714
RecQ helicase; 2 μg/mL
  Fluorescence at 35 minutes, Run 2: 2624 RFU and 2801 RFU
RecQ helicase; 2.0 μg/mL
  Average rate of reaction: 110.1429
  Rate (Triplicate): 108.1714 and 140.8 and 81.46
RecQ helicase; 6 μg/mL
  Fluorescence at 35 minutes, Run 2: 2526 RFU and 2818 RFU
  Fluorescence at time 0, Run 2: 8127 RFU and 9570 RFU
RecQ helicase; 6.0 μg/mL
  Average rate of reaction: 169.7048
RecQ helicase; 20 μg/mL
  Fluorescence at 35 minutes, Run 2: 3653 RFU and 3927 RFU
  Fluorescence at time 0, Run 2: 4464 RFU and 8870 RFU
RecQ helicase; 20.0 μg/mL
  Average rate of reaction: 55.09
RecQ helicase; 60 μg/mL
  Fluorescence at 35 minutes, Run 2: 4250 RFU and 4180 RFU
  Fluorescence at time 0, Run 2: 4134 RFU and 3133 RFU
RecQ helicase; 60.0 μg/mL
  Average rate of reaction: 58.1
RecQ helicase; 200 μg/mL
  Fluorescence at 35 minutes, Run 2: 3913 RFU and 4063 RFU
RecQ helicase; 200.0 μg/mL
  Average rate of reaction: 90.4381
RecQ helicase; [3]
  Fluorescence at 0:00:00, Run 1: 5759 RFU and 9125 RFU and 10456 RFU
  Fluorescence at 0:35:00, Run 1: 5467 RFU and 6877 RFU and 6542 RFU
RecQ helicase; [4]
  Fluorescence at 0:00:00, Run 1: 7735 RFU and 8642 RFU and 7853 RFU
  Fluorescence at 0:35:00, Run 1: 6072 RFU and 6143 RFU and 6397 RFU
RecQ helicase; [5]
  Fluorescence at 0:00:00, Run 1: 7559 RFU and 14137 RFU and 7347 RFU
  Fluorescence at 0:35:00, Run 1: 5304 RFU and 6502 RFU and 5900 RFU
RecQ helicase; [6]
  Fluorescence at 0:00:00, Run 1: 10359 RFU and 11454 RFU and 8360 RFU
  Fluorescence at 0:35:00, Run 1: 6573 RFU and 6526 RFU and 5509 RFU
RecQ helicase; [7]
  Fluorescence at 0:00:00, Run 1: 10222 RFU and 10590 RFU and 17264 RFU
  Fluorescence at 0:35:00, Run 1: 6164 RFU and 5213 RFU and 8880 RFU
RecQ helicase; [8]
  Fluorescence at 0:00:00, Run 1: 10452 RFU and 7252 RFU and 7210 RFU
  Fluorescence at 0:35:00, Run 1: 7008 RFU and 6217 RFU and 5588 RFU
RecQ helicase; TA 200 μg/mL (plate column 11, wells A-C)
  Fluorescence at 0:35:00, Run 1: 7231 RFU and 6648 RFU and 7799 RFU
RecQ helicase; [9]
  Fluorescence at 0:00:00, Run 1: 10477 RFU and 15660 RFU and 9770 RFU
  Fluorescence at 0:35:00, Run 1: 9155 RFU and 9497 RFU and 7774 RFU
RecQ helicase
  Change in helicase activity compared to the DMSO control: no observed clear change
RecQ helicase; listed as hesperidin
  Change in helicase activity compared to the DMSO control: no effect

From US12569509B2, “Method and composition for preventing and treating viral infections” (priority 2017, dated 2026)
